Values after ≈ are worked out from the molar mass of the structure shown. Values belong to the compound of their own block, whether it stands above or below them.
What was measured:
Test in all cases: ≥ marks a high value that may be exact or a test limit, other limits are often not marked, values filed in µg/mL are converted to µM
[1] = system: Klebsiella pneumoniae ATCC 700603
[2] = system: Candida glabrata ATCC 15126
[3] = system: Candida albicans ATCC 10231
[4] = system: Staphylococcus aureus ATCC 25923
[5] = system: Aspergillus niger ATCC 16404
[6] = system: Escherichia coli ATCC 25922
[7] = system: Escherichia coli ATCC 23506
[8] = system: Pseudomonas aeruginosa ATCC 9027
[9] = system: Enterococcus faecalis PCM 2673
[10] = system: Staphylococcus aureus ATCC 9144
[11] = system: Streptococcus pneumoniae ATCC 49619
[12] = system: Botrytis cinerea
[13] = system: Staphylococcus aureus
[14] = system: Pseudomonas aeruginosa
[15] = system: Escherichia coli
[16] = system: Aspergillus fumigatus KCTC 6145
[17] = system: Trichosporon beigelii
[18] = system: Proteus vulgaris
[19] = system: Salmonella typhimurium
[20] = system: Candida albicans KCTC 7270
[21] = system: Listeria monocytogenes KCTC 3710
[22] = system: Escherichia coli O157:H7 ATCC 43895
[23] = system: Aspergillus flavus KCTC 9471
[24] = system: Fusarium verticillioides
[25] = system: Saccharomyces cerevisiae
[26] = system: Staphylococcus epidermidis
[27] = system: Bacillus subtilis
[28] = system: Pseudomonas aeruginosa ATCC 27853
[29] = system: Salmonella enterica subsp. enterica serovar Enteritidis ATCC 13076
[30] = system: Serratia marcescens ATCC 21202
[31] = system: Bacillus cereus ATCC 11778
[32] = system: Streptococcus pyogenes ATCC 19615
[33] = system: Staphylococcus aureus ATCC 29213
[34] = system: Klebsiella pneumoniae
[35] = system: Escherichia coli K-12
[36] = system: Pseudomonas aeruginosa PA-W1
[37] = system: Staphylococcus aureus NCTC 8325-4
[38] = system: Pseudomonas aeruginosa PA-W14
[39] = system: Pseudomonas aeruginosa PAO1
[40] = system: Escherichia coli CICC 10302
[41] = system: Alcaligenes faecalis ATCC 8750
[42] = system: Staphylococcus aureus CICC 10306
[43] = system: Bacillus subtilis CICC 10034
[44] = system: Staphylococcus aureus CICC 10384
[45] = system: Salmonella enterica subsp. enterica serovar Paratyphi B CICC 10437
[46] = system: Escherichia coli CICC 10293
[47] = system: Serratia marcescens ATCC 4112
[48] = system: Escherichia coli CGMCC 3373
[49] = system: Listeria innocua CICC 10417
[50] = system: Bacillus megaterium CICC 10448
[51] = system: Pseudomonas aeruginosa CICC 21636
[52] = system: Enterobacter cloacae CICC 21539
[53] = system: Escherichia coli CICC 10300

Structure (SMILES): CC[C@H](C)[C@H](NC(=O)[C@H](CCCCN)NC(=O)[C@H](CO)NC(=O)[C@H](Cc1ccccc1)NC(=O)[C@H](CC(C)C)NC(=O)[C@H](CCCCN)NC(=O)[C@H](CCC(=O)O)NC(=O)[C@H](CC(C)C)NC(=O)[C@H](CCCN=C(N)N)NC(=O)[C@H](CCCCN)NC(=O)[C@H](Cc1ccccc1)NC(=O)[C@@H](NC(=O)[C@H](CCCCN)NC(=O)[C@H](CCCCN)NC(=O)[C@H](C)N)C(C)C)C(=O)N[C@@H](CCC(N)=O)C(=O)N[C@@H](CC(N)=O)C(=O)N[C@@H](Cc1c[nH]c2ccccc12)C(=O)N[C@@H](CCCCN)C(N)=O [AKKVFKRLEKLFSKIQNWK]
MIC [12]: 6.25 µM (≈ 14.9 µg/mL)
MIC [13]: 3.13 µM (≈ 7.48 µg/mL)
MIC [14]: 3.13 µM (≈ 7.48 µg/mL)
MIC [15]: 0.78 µM (≈ 1.86 µg/mL)
MIC [16]: ≥ 50 µM
MIC [17]: 1.56 µM (≈ 3.73 µg/mL)
MIC [18]: 3.13 µM (≈ 7.48 µg/mL)
MIC [19]: 0.39 µM (≈ 0.932 µg/mL)
MIC [20]: 25 µM (≈ 59.8 µg/mL)
MIC [21]: 0.78 µM (≈ 1.86 µg/mL)
MIC [22]: 6.25 µM (≈ 14.9 µg/mL)
MIC [23]: ≥ 50 µM
MIC [24]: 12.5 µM (≈ 29.9 µg/mL)
MIC [25]: 25 µM (≈ 59.8 µg/mL)
MIC [26]: 3.13 µM (≈ 7.48 µg/mL)
MIC [27]: 1.56 µM (≈ 3.73 µg/mL)

Structure (SMILES): CSCC[C@H](NC(=O)[C@H](CO)NC(=O)[C@H](CS)NC(=O)[C@@H](NC(=O)[C@H](CCC(=O)O)NC(=O)[C@H](CC(C)C)NC(=O)[C@H](CC(C)C)NC(=O)[C@@H]1CCCN1C(=O)[C@H](CC(C)C)NC(=O)[C@@H](N)C(C)C)[C@@H](C)O)C(=O)N[C@H](C(=O)N[C@@H](CS)C(=O)N[C@@H](Cc1c[nH]c2ccccc12)C(=O)N[C@@H](CCC(=O)O)C(=O)N[C@@H](CC(N)=O)C(=O)N[C@@H](CC(N)=O)C(=O)N[C@@H](CCC(N)=O)C(=O)N[C@H](C(=O)N[C@@H](Cc1ccccc1)C(=O)NCC(=O)N[C@@H](CCCCN)C(=O)O)[C@@H](C)O)[C@@H](C)O [VLPLLETCSMTCWENNQTFGK]
MIC [28]: > 41.4 µM
MIC [1]: > 41.4 µM
MIC [29]: ≥ 41.4 µM
MIC [30]: ≥ 41.4 µM
MIC [31]: ≥ 41.4 µM
MIC [6]: > 41.4 µM
MIC [32]: ≥ 41.4 µM
MIC [33]: > 41.4 µM

Structure (SMILES): CC[C@H](C)[C@H](NC(=O)[C@H](C)N)C(=O)NCC(=O)N[C@@H](Cc1cnc[nH]1)C(=O)N[C@@H](CS)C(=O)N[C@@H](CC(C)C)C(=O)NCC(=O)N[C@@H](C)C(=O)N[C@H](C(=O)N[C@@H](CC(C)C)C(=O)O)[C@@H](C)O [AIGHCLGATL]
MIC [40]: 8.38 µM
MIC [41]: 8.38 µM
MIC [42]: ≥ 33.5 µM
MIC [43]: ≥ 33.5 µM
MIC [44]: ≥ 33.5 µM
MIC [45]: 8.38 µM
MIC [46]: 8.38 µM
MIC [47]: 8.38 µM
MIC [48]: 8.38 µM
MIC [49]: ≥ 33.5 µM
MIC [50]: 8.38 µM
MIC [51]: 4.19 µM
MIC [52]: 4.19 µM
MIC [53]: 8.38 µM

Continued, values first:

MIC [1]: 86.4 µM (≈ 128 µg/mL)
MIC [2]: ≥ 173 µM
MIC [3]: > 173 µM
MIC [4]: > 173 µM
MIC [5]: ≥ 173 µM
MIC [6]: 173 µM (≈ 256 µg/mL)
MIC [7]: ≥ 173 µM
MIC [8]: > 173 µM
MIC [9]: ≥ 173 µM
MIC [10]: ≥ 173 µM
MIC [11]: ≥ 173 µM
Structure (SMILES): CC[C@H](C)[C@H](NC(=O)[C@H](C)NC(=O)[C@H](CCC(=O)O)NC(=O)[C@H](CO)NC(=O)[C@@H](N)Cc1ccccc1)C(=O)N[C@@H](CCCCN)C(=O)N[C@@H](CCCCN)C(=O)N[C@H](C(=O)N[C@H](C(=O)N[C@@H](CC(=O)O)C(=O)N[C@@H](Cc1ccccc1)C(=O)N[C@@H](CC(C)C)C(=O)NCC(N)=O)[C@@H](C)CC)[C@@H](C)CC [FSEAIKKIIDFLG]

MIC [13]: 7.81 µM (≈ 14.9 µg/mL)
MIC [34]: 15.6 µM (≈ 29.7 µg/mL)
MIC [35]: 15.6 µM (≈ 29.7 µg/mL)
MIC [36]: 15.6 µM (≈ 29.7 µg/mL)
MIC [37]: 7.81 µM (≈ 14.9 µg/mL)
MIC [38]: 31.3 µM (≈ 59.6 µg/mL)
MIC [39]: 15.6 µM (≈ 29.7 µg/mL)
Structure (SMILES): NCCCC[C@H](NC(=O)[C@H](CCCCN)NC(=O)[C@H](Cc1c[nH]c2ccccc12)NC(=O)[C@H](Cc1c[nH]c2ccccc12)NC(=O)[C@H](CCCCN)NC(=O)[C@H](CCCCN)NC(=O)[C@H](Cc1c[nH]c2ccccc12)NC(=O)[C@H](Cc1c[nH]c2ccccc12)NC(=O)[C@H](CCCCN)NC(=O)[C@H](CCCCN)NC(=O)[C@@H](N)Cc1c[nH]c2ccccc12)C(=O)N[C@@H](Cc1c[nH]c2ccccc12)C(N)=O [WKKWWKKWWKKW]

Source: DBAASP
